Laboratory results as given in patent US5198336A, “Bioassay for chemicals which generate prooxidant states” (Wisconsin Alumni Research Foundation, priority 1989, dated 1993).

System: submitochondrial electron transport particles (ETP) having competent electron transport enzyme complex I
Test: facilitated electron withdrawal bioassay with SOD-depleted submitochondrial electron transport particles (adrenochrome formation, absorbance at 480 nm)
Assay type: biochemical, bovine (beef heart)
Conditions: for lowest observable effect concentration (LOEC): concentration giving a response three standard deviations above mean control, HEPES buffer pH 7.2, 1.5 mM epinephrine, 0.5 mg ETP, 125 uM NADH, 10 minute incubation; for lowest observable effect concentration (LOEC) / relative potency to induce a prooxidant state (FIG. 4): 0.2 ug per ml antimycin A; for relative potency to induce a prooxidant state (FIG. 4): ranking among the five agents tested, 0 to 10 ug per ml toxicant
Method: The practice of the present invention began with the creation of submitochondrial electron transport particles (ETP) isolated from beef hearts. These are also referred to as submitochondrial particles. The mitochondria were isolated from bovine heart muscle by the method of Blair, supra. The superoxide dismutase-depleted ETP particles were prepared by sonicating the thawed mitochondria for two minutes in a medium containing 0.25M sucrose and 2 mM EDTA, pH 7.5, at a protein concentration of 25 mg per ml. The result was diluted with an equal volume of 0.25M sucrose and adjusted to a pH of 7.5 after which it was centrifuged for 40 minutes at 105,000×g. The resulting ETP particles were washed in ten volumes of 0.25M sucrose and sedimented by centrifugation. After treatment the ETP particles were stored frozen in buffered 0.25M sucrose at a protein concentration of 20 mg per ml.
The test medium contained 50 mM HEPES buffer, 1.5 mM epinephrine and 0.4 uM antimycin. The medium was adjusted to a pH of 7.2 with 5M potassium hydroxide and dispensed in 1.8 ml aliquots into 1-CM path length glass cuvettes. Either aqueous diluent or the test sample was added in a volume of 20-50 ul so that the final concentration ranged between 0 and 100 ug per ml. Following the addition of 0.5 mg of the SOD-depleted ETP particles suspended in a 0.1 ml 50 mM HEPES buffer, the cuvettes were covered with parafilm and inverted three times to mix the contents. First a base line absorbance reading was taken by the spectrophotometer set for 480 nm.
After the base line reading was taken, the reaction was started by adding 50 ul of 5 mM NADH. The final absorbance readings were then taken after a 10 minute incubation at room temperature. The final absorbance readings were used to calculate a lowest observable effect concentration (LOEC) for each of the chemicals tested. […] It is intended that the LOEC value be analogous to the limited detection value used for environmental samples subject to conventional analysis.
All experiments summarized in this table and in FIG. 4 were conducted with 2 ml HEPES buffer, a pH of 7.2, 1.5 mM epinephrine, 0.2 ug per ml antimycin A, 0.5 mg ETP, 125 uM NADH and 0 to 10 ug per ml of the test toxicant.

| Compound | lowest observable effect concentration (LOEC) [µg/L] | relative potency to induce a prooxidant state (FIG. 4) | effect of antimycin A or rotenone on the response to paraquat (FIG. 3) (with vs without 0.2 ug per ml antimycin A or 0.2 ug per ml rotenone, absorbance at 480 nm) |
| --- | --- | --- | --- |
| O=S(=O)(O)c1ccccc1N=Nc1c(S(=O)(=O)O)cc2cc(S(=O)(=O)O)c(N=Nc3ccccc3S(=O)(=O)O)c(O)c2c1O [Sulfonazo III] | 320 | strongest inducer of the prooxidant states | – |
| c1cc[n+]2c(c1)-c1cccc[n+]1CC2 [Diquat] | 1600 | – | – |
| COc1cccc2c1C(=O)c1c(O)c3c(c(O)c1C2=O)C[C@@](O)(C(=O)CO)C[C@@H]3O[C@H]1C[C@H](N)[C@H](O)[C@H](C)O1 [Adriamycin] | 6300 | weakest | – |
| C[n+]1ccc(-c2cc[n+](C)cc2)cc1 [Paraquat] | 3500 | – | increases the rate at which paraquat can draw electrons from the electron transport cascade |
| O=[N+]([O-])c1cc[n+]([O-])c2ccccc12 [4-Nitroquinoline-N-oxide] | 1600 | – | – |
